The values below come from patent US20220370416A1, “COMPOUNDS AND METHODS FOR TARGETED DEGRADATION OF KRAS” (Arvinas Operations, Inc., priority 2020, published 2022).

SMILES strings stand for the structures.

Experiment [1] addresses T1, HiBit-KRAS^G12C (Homo sapiens, UniProt P01116, G12C). In words: HiBit degradation assay in MiaPaCa-2 HiBit-KRas^G12C cells. It counts as cell-based. The note with it: 24 hours; for DC50: read-out: KRas^G12C-HiBiT (MiaPaCa; 0.5% DMSO) IC50. On the procedure:
Reagents. SW1573 (CRL-2170) and MiaPaCa-2 (CRL-1420) cells were purchased from ATCC. Both cell lines are […] for the G12C mutation in KRAS. SW1573 cells were cultured in DMEM+F12+Glutamax (+Sodium Bicarbonate, +sodium pyruvate, Thermofisher scientific, #10565) supplemented with 10% FBS (Thermofisher scientific, #2060357) and 1% Antibiotic-Antimycotic (Thermofisher scientific, #15240096). MiaPaCa-2 cells were cultured in DMEM+Glutamax media (Thermofisher scientific, #10566) supplemented with 10% FBS (Thermofisher scientific, #2060357) and 1% Antibiotic-Antimycotic (Thermofisher scientific, #15240096). For degradation assays, 384 well plates were purchased from Corning (Corning® CellBIND® 384-well Flat Clear Bottom Black Polystyrene Microplates, Low Flange, #3770). Gambogic acid was purchased from Selleckchem (#S2448). Alamar blue was purchased from Thermofisher scientific (A50101) and used according to manufacturer instructions. The Nano-Glo® HiBit Lytic Detection System and Nano-Glo® HiBit Blotting System were purchased from Promega (#N3050 and #N2410) and used according to manufacturer instructions.
To create the MiaPaCa-2 HiBit-KRAS^G12C cell line, CRISPR-Cas9 was used to insert the HiBit tag onto the N-terminus of one or more of the four endogenous KRAS^G12C alleles. After knock-in of the tag, individual clones were isolated by single cell dilution and screened for HiBit insertion by PCR. Clones containing the HiBit tag were sequenced and one was identified that contained the desired HiBit-KRAS^G12C sequence at one allele while the remaining three KRAS^G12C alleles were unaffected. This line was used for all subsequent studies.
Either SW1573 HiBit-KRas^G12C or MiaPaCa-2 HiBit-KRas^G12C cells were plated at 9000 cells/well in a 384 well plate (Corning #3770). Exemplary heterobifunctional molecules and positive controls were diluted in the appropriate cell media and applied to the plated cells resulting in a final concentration titration of 10 μM to 20 nM in either 0.1% or 0.5% dimethyl sulfoxide (DMSO). Gambogic acid was used as a positive control for cytotoxicity and titrated from 10 μM to 78 nM. All assays were performed in triplicate. Cells were treated with compounds for 24 hours at 37° C. in an incubator containing 5% CO2. Following treatment, alamar blue was used to determine if any compounds led to a loss in cell viability after 24 hours. The 10× alamar blue reagent was added to a final concentration of 1× as recommended by the manufacturer and cells were returned to the incubator for 4 hours. Plates were then allowed to equilibrate to room temperature and fluorescence was measured using a Perkin-Elmer EnVision. After completion of the fluorescence read, the liquid from each well was removed and the cells were washed with PBS. The Nano-Glo® HiBiT detection reagent was prepared according to the manufacturer's instructions and added to each well after the PBS wash was removed. Following incubation at room temperature for 45 minutes, the luminescence was read using the ultra-sensitive luminescence aperture on the Envision instrument.
Fluorescence values from the alamar blue treatment were normalized to the DMSO only control for each compound titration. We hypothesized that compounds that led to a ≥50% loss in cell viability of the KRAS-independent SW1573 HiBit-KRas^G12C cells were likely generally cytotoxic and loss of HiBit-KRAS^G12C signal from these compounds may be due to lower cell number and not specific KRAS^G12C degradation. These points were therefore excluded from the data analysis for degradation. […]

Experiment [2] addresses T1, HiBit-KRAS^G12C. The experiment can be described thus: HiBit degradation assay in SW1573 HiBit-KRas^G12C cells. It counts as cell-based. The arrangement: expressed in transfected cells; host or cells: SW1573 (clone E6), modified pcDNA3.1 vector, TK promoter. The note with it: 24 hours. The method, boiled down: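 HiBit-KRAS G12C degradation was measured after a 24 h compound exposure (titrated 10 μM–20 nM) in engineered SW1573 cells. Lytic HiBit luminescence, expressed relative to DMSO controls, yielded DC50 and Dmax from 4-parameter fits. Concentrations causing ≥50% loss in alamar blue viability were omitted as cytotoxic.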
Background: With HiBiT, luminescence reflects the tagged protein that the partner subunit can reach.

Where [3] appears, read: MIA PaCa-2, MiaPaCa-2 HiBit-KRas^G12C cells, 0.5% DMSO, maximum degradation, read-out: KRas^G12C-HiBiT (MiaPaCa; 0.5% DMSO) DMax.
The mark [4] stands for this setting: MiaPaCa-2 HiBit-KRas^G12C cells, 0.5% DMSO.
[5] abbreviates: SW1573, SW1573 HiBit-KRas^G12C, 0.5% DMSO, read-out: KRas^G12C-HiBiT (SW1573; 0.5% DMSO) Dmax**.
Setting [6] is: read-out: KRas^G12C-HiBiT (SW1573; 0.5% DMSO) IC50***, SW1573 HiBit-KRas^G12C, 0.5% DMSO.
Setting [7] is: SW1573 HiBit-KRas^G12C, 0.1% DMSO, read-out: KRas^G12C-HIBit (SW1573; 0.1% DMSO) DC50*.

T1 sequence (P01116 1-186 isoform P01116-2 G12C limits assumed): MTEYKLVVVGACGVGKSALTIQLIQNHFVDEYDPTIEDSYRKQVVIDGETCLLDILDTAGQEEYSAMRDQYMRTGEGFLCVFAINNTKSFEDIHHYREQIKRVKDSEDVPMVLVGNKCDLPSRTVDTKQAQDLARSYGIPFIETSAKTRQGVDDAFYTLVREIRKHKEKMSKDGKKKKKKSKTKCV

On to `C=C(F)C(=O)N1CCN(c2nc(OCCN3CCC4(CC3)CN(c3cc([C@H](C(=O)N5C[C@H](O)C[C@H]5C(=O)N[C@@H](C)c5ccc(-c6ccnn6C)cc5)C(C)C)on3)C4)nc3c(F)c(-c4cc(O)cc5ccccc45)c(Cl)cc23)C[C@@H]1CC#N` (atropisomer, axis not shown) [Compound 112, (2S,4R)-1-[(2R)-2-(3-{7-[2-({6-chloro-4-[(3S)-3-(cyanomethyl)-4-(2-fluoroprop-2-enoyl)piperazin-1-yl]-8-fluoro-7-(3-hydroxynaphthalen-1-yl)quinazolin-2-yl}oxy)ethyl]-2,7-diazaspiro[3.5]nonan-2-yl}-1,2-oxazol-5-yl)-3-methylbutanoyl]-4-hydroxy-N-[(1S)-1-[4-(1-methyl-1H-pyrazol-5-yl)phenyl]ethyl]pyrrolidine-2-carboxamide], for which the Dmax at HiBit-KRAS^G12C [1] (setting [3]) and on HiBit-KRAS^G12C [2] (setting [5]) was more than 70% throughout. The DC50 on HiBit-KRAS^G12C [1] (setting [4]) and at HiBit-KRAS^G12C [2] (setting [6]) was 100 to 1000 nM each time.

As for `C=CC(=O)N1CCN(c2nc(OCCN3CCC4(CC3)CN(c3cc([C@H](C(=O)N5C[C@H](O)C[C@H]5C(=O)N[C@@H](C)c5ccc(-c6scnc6C)cc5)C(C)C)on3)C4)nc3c(F)c(-c4cc(O)cc5ccccc45)c(Cl)cc23)C[C@@H]1CC#N` (atropisomer, axis not shown) [Compound 107, (2S,4R)-1-[(2R)-2-(3-{7-[2-({6-chloro-4-[(3S)-3-(cyanomethyl)-4-(prop-2-enoyl)piperazin-1-yl]-8-fluoro-7-(3-hydroxynaphthalen-1-yl)quinazolin-2-yl}oxy)ethyl]-2,7-diazaspiro[3.5]nonan-2-yl}-1,2-oxazol-5-yl)-3-methylbutanoyl]-4-hydroxy-N-[(1S)-1-[4-(4-methyl-1,3-thiazol-5-yl)phenyl]ethyl]pyrrolidine-2-carboxamide], the “KRas^G12C-HiBiT (MiaPaCa; 0.5% DMSO) DMax” value at HiBit-KRAS^G12C [1] (MiaPaCa-2 HiBit-KRas^G12C cells, 0.5% DMSO, maximum degradation) was “B (35 < B < 70)”. Moreover, the DC50 on HiBit-KRAS^G12C [1] (setting [4]) and on HiBit-KRAS^G12C [2] (setting [6]) was less than 100 nM in each case. Further, the “KRas^G12C-HiBiT (SW1573; 0.5% DMSO) Dmax**” value at HiBit-KRAS^G12C [2] (SW1573 HiBit-KRas^G12C, 0.5% DMSO) was “B (35 < B < 70)”.

Regarding `C=CC(=O)N1CCN(c2nc(O[C@H](C)CN3CCC(COCC(=O)N[C@H](C(=O)N4C[C@H](O)C[C@H]4C(=O)N[C@@H](C)c4ccc(-c5scnc5C)cc4)C(C)(C)C)CC3)nc3c2CCN(c2cc(O)cc4ccccc24)C3)C[C@@H]1CC#N` [Compound 29, (2S,4R)-1-[(2S)-2-[2-({1-[(2R)-2-({4-[(3S)-3-(cyanomethyl)-4-(prop-2-enoyl)piperazin-1-yl]-7-(3-hydroxynaphthalen-1-yl)-5H,6H,7H,8H-pyrido[3,4-d]pyrimidin-2-yl}oxy)propyl]piperidin-4-yl}methoxy)acetamido]-3,3-dimethylbutanoyl]-4-hydroxy-N-[(1S)-1-[4-(4-methyl-1,3-thiazol-5-yl)phenyl]ethyl]pyrrolidine-2-carboxamide], the Dmax at HiBit-KRAS^G12C [1] (MIA PaCa-2, MiaPaCa-2 HiBit-KRas^G12C cells, 0.1% DMSO, maximum degradation, read-out: KRas^G12C-HiBiT (MiaPaCa; 0.1% DMSO) DMax) lay in the range of 35 to 70%; at HiBit-KRAS^G12C [1] (setting [3]), 35 to 70%; on HiBit-KRAS^G12C [2] (SW1573, SW1573 HiBit-KRas^G12C, 0.1% DMSO, read-out: KRas^G12C-HiBit (SW1573; 0.1% DMSO) Dmax**) it was 35 to 70%; on HiBit-KRAS^G12C [2] (setting [5]), 35 to 70%. Besides, the DC50 on HiBit-KRAS^G12C [2] (setting [7]) was more than 1000 nM.

With `C=C(F)C(=O)N1CCN(c2nc(OCCN3CCC(COc4cc([C@H](C(=O)N5C[C@H](O)C[C@H]5C(=O)N[C@@H](C)c5ccc(-c6ccnn6C)cc5)C(C)C)on4)CC3)nc3c(F)c(-c4cc(O)cc5ccccc45)c(Cl)cc23)C[C@@H]1CC#N` [Compound 156, (2S,4R)-1-[(2R)-2-[3-({1-[2-({6-chloro-4-[(3S)-3-(cyanomethyl)-4-(2-fluoroprop-2-enoyl)piperazin-1-yl]-8-fluoro-7-(3-hydroxynaphthalen-1-yl)quinazolin-2-yl}oxy)ethyl]piperidin-4-yl}methoxy)-1,2-oxazol-5-yl]-3-methylbutanoyl]-4-hydroxy-N-[(1S)-1-[4-(1-methyl-1H-pyrazol-5-yl)phenyl]ethyl]pyrrolidine-2-carboxamide], the values for the DC50 at HiBit-KRAS^G12C [1] (setting [4]) and at HiBit-KRAS^G12C [2] (setting [6]) were 100 to 1000 nM and less than 100 nM, respectively.

In the case of `C=CC(=O)N1CCN(c2nc(O[C@H]3CCC[C@@H]3N3CCC(COCC(=O)N[C@H](C(=O)N4C[C@H](O)C[C@H]4C(=O)N[C@@H](C)c4ccc(-c5scnc5C)cc4)C(C)(C)C)CC3)nc3c(F)c(-c4cc(O)cc5ccccc45)c(Cl)cc23)CC1` [Compound 12, (2S,4R)-1-[(2S)-2-[2-({1-[(1S,2S)-2-{[6-chloro-8-fluoro-7-(3-hydroxynaphthalen-1-yl)-4-[4-(prop-2-enoyl)piperazin-1-yl]quinazolin-2-yl]oxy}cyclopentyl]piperidin-4-yl}methoxy)acetamido]-3,3-dimethylbutanoyl]-4-hydroxy-N-[(1S)-1-[4-(4-methyl-1,3-thiazol-5-yl)phenyl]ethyl]pyrrolidine-2-carboxamide], the Dmax at HiBit-KRAS^G12C [1] (MIA PaCa-2, read-out: KRas^G12C-HiBiT (MiaPaCa; 0.1% DMSO) DMax, MiaPaCa-2 HiBit-KRas^G12C cells, 0.1% DMSO, maximum degradation) was less than 35%; at HiBit-KRAS^G12C [1] (MIA PaCa-2, read-out: KRas^G12C-HiBiT (MiaPaCa; 0.5% DMSO) DMax, MiaPaCa-2 HiBit-KRas^G12C cells, 0.5% DMSO, maximum degradation), less than 35%; at HiBit-KRAS^G12C [2] (SW1573, read-out: KRas^G12C-HiBiT (SW1573; 0.5% DMSO) Dmax**, SW1573 HiBit-KRas^G12C, 0.5% DMSO) it was 35 to 70%; on HiBit-KRAS^G12C [2] (SW1573, read-out: KRas^G12C-HiBit (SW1573; 0.1% DMSO) Dmax**, SW1573 HiBit-KRas^G12C, 0.1% DMSO), 35 to 70%. The DC50 on HiBit-KRAS^G12C [2] (setting [7]) lay within 100 to 1000 nM.

`C=CC(=O)N1CCN(c2nc(OC[C@@H]3CCN(CCCOCC(=O)N[C@H](C(=O)N4C[C@H](O)C[C@H]4C(=O)N[C@@H](C)c4ccc(-c5scnc5C)cc4)C(C)(C)C)C3)nc3c(F)c(-c4cc(O)cc5ccccc45)c(Cl)cc23)C[C@@H]1CC#N` [Compound 95, (2S,4R)-1-[(2S)-2-(2-{3-[(3R)-3-[({6-chloro-4-[(3S)-3-(cyanomethyl)-4-(prop-2-enoyl)piperazin-1-yl]-8-fluoro-7-(3-hydroxynaphthalen-1-yl)quinazolin-2-yl}oxy)methyl]pyrrolidin-1-yl]propoxy}acetamido)-3,3-dimethylbutanoyl]-4-hydroxy-N-[(1S)-1-[4-(4-methyl-1,3-thiazol-5-yl)phenyl]ethyl]pyrrolidine-2-carboxamide]: the Dmax at HiBit-KRAS^G12C [1] (setting [3]) and at HiBit-KRAS^G12C [2] (setting [5]) was more than 70% in each case. For the same molecule, the DC50 at HiBit-KRAS^G12C [1] (setting [4]) was more than 1000 nM; at HiBit-KRAS^G12C [2] (setting [6]) it was 100 to 1000 nM.
